Values joined by “and” are separate entries in the source; they are usually repeats but may differ in a detail not shown here. Equal values may be shown once. Read-outs that look alike come from different tables or passages of the source.
Experiments:
[1] = target: Salmonella typhimurium YihX, recombinant wild type, SEQ ID NO: 2 (Salmonella enterica, UniProt Q7CPC8); test: Kinetic studies of YihX with Glc 1-P and Gal 1-P; assay type: biochemical; conditions: YihX refolded after denaturing purification
Chain of Salmonella typhimurium YihX, recombinant wild type, SEQ ID NO: 2 (Q7CPC8 entry or part of it): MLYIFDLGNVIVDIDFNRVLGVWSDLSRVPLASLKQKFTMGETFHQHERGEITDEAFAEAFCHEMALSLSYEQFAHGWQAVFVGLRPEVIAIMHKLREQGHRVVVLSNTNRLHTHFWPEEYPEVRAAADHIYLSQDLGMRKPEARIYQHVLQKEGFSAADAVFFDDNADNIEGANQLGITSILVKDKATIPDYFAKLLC
Text: Salmonella YihX was purified after overexpression in E. coli BL21 (DE3) pLysS cells. His6-YihX was purified under denaturing conditions using immobilized metal-affinity chromatography. Following purification, YihX was refolded by stepdown dialysis to remove the denaturant.

E. coli YidA = conditions: Kuznetsova et al. 2006; cited from earlier work
[2] = target: Salmonella typhimurium YidA, recombinant wild type, SEQ ID NO: 1 (Salmonella enterica, UniProt Q8ZKY8); test: YidA phosphatase activity (malachite green), dephosphorylation of Glc-1-P; assay type: biochemical
Chain of Salmonella typhimurium YidA, recombinant wild type, SEQ ID NO: 1 (Q8ZKY8 entry or part of it): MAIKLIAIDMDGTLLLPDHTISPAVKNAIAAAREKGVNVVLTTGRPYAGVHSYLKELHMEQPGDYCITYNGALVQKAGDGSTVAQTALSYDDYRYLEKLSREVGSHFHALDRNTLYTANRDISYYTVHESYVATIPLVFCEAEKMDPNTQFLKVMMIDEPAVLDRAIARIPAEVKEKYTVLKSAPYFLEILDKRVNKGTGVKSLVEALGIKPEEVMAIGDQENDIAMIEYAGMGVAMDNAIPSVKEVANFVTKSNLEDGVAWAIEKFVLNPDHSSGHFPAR
Text: The sugar phosphate phosphatase produced from an engineered cell can be identical to a naturally occurring one, such as YidA or YihX, but placed within a cell in which it is not naturally produced. Examples of this approach are given throughout. The sequence for YidA from Salmonella typhimurium can be found, for example, in NC_492731.1. This sequence corresponds to SEQ ID NO: 1. The gene ID is 1255358. The sequence for YihX from Salmonella typhimurium can be found, for example, in NC_462906.1. This corresponds to SEQ ID NO: 2. The gene ID is 1255552. In one example, genes encoding these proteins can be placed within a cell in which it is not naturally occurring.
Nearly homogeneous recombinant Salmonella YidA by overexpressing it in E. coli SixPack cells were obtained (Lipinszki et al. 2018) (FIG. 3A). N-terminal fusions with a small ubiquitin-like modifier (SUMO) domain were engineered to enhance solubility (Marblestone et al. 2006) and a His6 tag to facilitate affinity purification (FIG. 3A). […] Since YidA is a Mg^2+-dependent phosphatase, its activity with Glc-1-P in the presence of 0-5 mM MgCl2 was first tested and determined that 3 mM MgCl2 was optimal (FIG. 5). […]

[3] = target: T1, Duarte GalT (galactose-1-phosphate uridylyltransferase, Duarte variant) (Homo sapiens, UniProt P07902, N314D); test: Duarte GalT-PGM-G6PDH coupled assay (traditional); assay type: biochemical
T1 construct: coupled to YidA or PGM-G6PDH (helper enzymes)
T1 sequence (P07902 whole entry N314D): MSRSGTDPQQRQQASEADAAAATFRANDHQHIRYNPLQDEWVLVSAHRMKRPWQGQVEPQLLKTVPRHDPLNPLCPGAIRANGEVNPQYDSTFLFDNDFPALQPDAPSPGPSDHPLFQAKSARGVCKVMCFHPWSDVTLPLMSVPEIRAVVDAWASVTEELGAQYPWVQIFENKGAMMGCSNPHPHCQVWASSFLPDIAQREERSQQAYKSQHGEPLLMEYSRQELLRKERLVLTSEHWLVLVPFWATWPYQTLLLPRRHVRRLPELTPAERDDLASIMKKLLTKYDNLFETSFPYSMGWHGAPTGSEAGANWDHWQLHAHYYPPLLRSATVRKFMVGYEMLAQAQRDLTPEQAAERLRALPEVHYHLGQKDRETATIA
Procedure: It was sought to compare the Duarte GalT activity determined using the YidA assay versus the existing method. To this end, measurements were conducted using the traditional PGM-G6PDH coupled assay (McCorvie et al. 2013). By titrating the coupled enzymes, the threshold that permits the most sensitive detection was first determined.
(§1) Transformation and overexpression of GalT were performed as described elsewhere (Lai et al. 2021). For purification, a single bacterial colony expressing GalT was used to inoculate 2.5 mL of Dynamite growth medium (Taylor et al. 2017) supplemented with […] kanamycin and grown overnight at 37° ° C. with shaking. This saturated overnight culture was used to seed 250 mL of fresh dynamite medium containing the antibiotic. […]
(§2) Recombinant GalT was purified using the same protocol as that described above for YidA. The concentration of the His6-tagged GalT was determined using a molar extinction coefficient (85,620 M^−1 cm^−1) at 280 nm, and the final preparation was stored at −80° C. in small aliquots, which were subsequently thawed immediately before use in biochemical assays.
An NADH standard curve (data not shown) was generated using relative fluorescence units (RFUs) versus different concentrations of NADH and used as a reference for calculating the NADH produced from the Duarte GalT-PGM-G6PDH coupled assay. […]

[4] = system: wild-type GalT (galactose-1-phosphate uridylyltransferase); conditions: cited from earlier work; for Km: read-out: Km (for Gal-1-P)
[5] = target: T1, Duarte GalT (galactose-1-phosphate uridylyltransferase, Duarte variant); test: Duarte GalT-YidA coupled assay (SUMO tag removed from YidA); assay type: biochemical
Procedure: Next, it was sought to obtain recombinant GalT for proof-of-concept assays. The ready availability of the Duarte GalT clone from Addgene (GALTA-c001) led to use of this enzyme in the current studies.
as §1, §2
These 2-μL aliquots were added to a 384-well plate which were pre-dispensed to test wells 18 μL of water and 5 μL of malachite green reagent. […] To determine the Km and kcat values, the initial velocity calculated at each substrate concentration was subject to the Michaelis-Menten curve-fitting option in Kaleidagraph (Synergy Software).

[6] = mean ± SD of three independent trials
[7] = McCorvie et al., 2013 (text: 2014)

O=P(O)(O)O[C@H]1O[C@H](CO)[C@@H](O)[C@H](O)[C@H]1O [Glc-1-P, α-D-glucose-1-phosphate]
specificity for Glc 1-P over Gal 1-P [1]: 36 fold | Km (E. coli YidA): 210 µM | kcat (E. coli YidA): 20 s⁻¹ | kcat ([2]; mean ± SE of two independent trials): 14.2 ± 0.35 s⁻¹ | kcat ([2]; single trials, ± curve-fit error, pH 8, 37° C., 3 mM MgCl2): 13.9 ± 1.07 s⁻¹ and 14.6 ± 1.05 s⁻¹

O=P(O)(O)O[C@H]1O[C@H](CO)[C@H](O)[C@H](O)[C@H]1O [Gal-1-P, galactose-1-phosphate]
kcat [3, 6]: 4.32 ± 0.12 s⁻¹ | kcat ([3]; single trials, ± curve-fit error, pH 8, 37° C., 0.8 mM UDP-glucose): 4.45 ± 0.2 s⁻¹ and 4.3 ± 0.067 s⁻¹ and 4.22 ± 0.2 s⁻¹ | kcat ([4]; Crews et al., 2000): 5,880 min^−1 | kcat [4, 7]: 816 min⁻¹ | kcat ([4]; Tang et al., 2012, table value calculated from reported Vmax with 44 kDa): 2,400 min^−1 and 2,122* min^−1 | Km ([4]; Crews et al., 2000): 400 µM | Km [4, 7]: 290 µM | Km ([4]; Tang et al., 2012): 1250 µM | kcat [5, 6]: 14.2 ± 1.33 s⁻¹ and 14.1 ± 0.75 s⁻¹ | kcat ([5]; single trials, ± curve-fit error, pH 8.0, 37° C., 1 mM UDP-glucose): 14.2 ± 1.33 s⁻¹ and 13.3 ± 1.05 s⁻¹ and 14.7 ± 1.17 s⁻¹

From patent US20240247301A1, “DIAGNOSTIC ASSAY FOR CLASSIC INBORN GALACTOSEMIA” (Ohio State Innovation Foundation, priority 2022, published 2024)
